According to patent US8338420B1, “Treatment of Parkinson's disease and enhancement of dopamine signal using PDE 10 inhibitor” (Mitsubishi Tanabe Pharma Corporation, priority 2002, dated 2012):
pIC50: −log10 of the molar value.

Tests used:
[1] = molecular target: T1, PDE2 (Bos taurus, UniProt P14099); assay: PDE assay, PDE2 enzyme solution from bovine adrenal gland; type: biochemical, Japanese Black Cattle; conditions: substrate about 12 nM [3H]-cGMP and 1 μM cGMP
T1 construct: tissue Tokyo Shibaura Zoki; host or cells: bovine adrenal gland, soluble fraction, ion-exchange fractions
T1 sequence (P14099 1-921): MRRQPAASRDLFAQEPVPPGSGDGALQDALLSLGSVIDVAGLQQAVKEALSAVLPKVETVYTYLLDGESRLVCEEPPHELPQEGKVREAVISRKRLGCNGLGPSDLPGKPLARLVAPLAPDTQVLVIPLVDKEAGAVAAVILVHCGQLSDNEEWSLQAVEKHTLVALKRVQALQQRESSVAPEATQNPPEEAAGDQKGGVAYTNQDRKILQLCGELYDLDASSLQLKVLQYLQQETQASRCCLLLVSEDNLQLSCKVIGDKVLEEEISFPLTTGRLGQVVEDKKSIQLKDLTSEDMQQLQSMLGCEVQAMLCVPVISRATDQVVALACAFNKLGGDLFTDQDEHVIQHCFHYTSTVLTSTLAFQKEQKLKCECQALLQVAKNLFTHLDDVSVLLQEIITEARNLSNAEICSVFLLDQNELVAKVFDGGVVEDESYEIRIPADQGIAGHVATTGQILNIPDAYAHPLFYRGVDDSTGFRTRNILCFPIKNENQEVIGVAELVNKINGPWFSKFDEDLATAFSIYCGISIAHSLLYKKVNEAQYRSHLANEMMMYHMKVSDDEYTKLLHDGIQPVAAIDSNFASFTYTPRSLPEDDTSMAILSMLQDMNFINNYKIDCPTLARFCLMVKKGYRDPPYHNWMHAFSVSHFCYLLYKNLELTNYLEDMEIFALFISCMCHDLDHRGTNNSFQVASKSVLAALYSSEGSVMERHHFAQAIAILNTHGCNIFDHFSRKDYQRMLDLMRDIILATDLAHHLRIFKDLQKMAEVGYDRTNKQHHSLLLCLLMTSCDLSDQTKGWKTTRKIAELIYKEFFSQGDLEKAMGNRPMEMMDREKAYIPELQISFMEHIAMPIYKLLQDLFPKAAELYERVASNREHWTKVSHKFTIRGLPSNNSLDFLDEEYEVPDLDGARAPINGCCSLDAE
Protocol: One adrenal gland of Japanese Black Cattle, purchased from Tokyo Shibaura Zoki, co., Ltd. was washed with 100 ml of ice-cold saline (0.9% sodium chloride) twice. Subsequently, the tissues were cut into about 1 gram, and it was frozen by liquid nitrogen. To about 2 g of this tissue sample was added 10 ml of an ice-cold homogenization buffer II (25 mM Tris-HCl, pH 7.5, 4 mM magnesium chloride, 0.5 mM EGTA, 2 mM dithiothreitol, 4 mM benzamidine, 0.1 mM phenylmethylsulfonyl fluoride), and the homogenate that was homogenized by Polytron homogenizer for 3 minutes was centrifuged at 8000 rpm, at 4° C. for 20 minutes, and the obtained supernatant was further centrifuged by an ultracentrifuge at 50000 rpm, at 4° C. for 60 minutes. The resultant supernatant was stored at 4° C.
This supernatant was applied to chromatography under the FPLC system, in the same manner as in Example 1 (1) above. […]
Subsequently, the eluted fractions were used as an enzyme solution for PDE assay, and cGMP-hydrolyzing activity was measured. Or, cAMP-hydrolyzing activity was measured for respective fractions, in the presence or absence of unlabeled cGMP. […]

[2] = Brain uptake (integration plot method, PS) and PDE10 binding occupancy in the brain; type: in vivo; conditions: rat, 1 mg/kg, i.v.
From the text: Different from other tissue, the brain has the blood brain barrier (BBB) to restrict and regulate the movement of molecules between the blood and the brain. BBB consists of brain capillary endothelial cells. The brain capillary endothelial cells are connected through tight junction, and nutrients and drugs in the blood are required to pass transcellularly through the brain capillary endothelial cells. As a mechanism for the drugs to pass through the BBB, there are mentioned the following five routes; 1) passive diffusion, 2) carrier-mediated transport, 3) receptor-mediated transcytosis, 4) absorptive-mediated transcytosis and 5) active efflux transport by P-glycoprotein. The rate of the compound to pass through the BBB and enter the brain (PS) via one or plurals of these mechanisms can be measured by known in vivo experimental assays such as in situ brain perfusion, integration plot method, etc., or by the known in vitro experimental assays such as primary cultured brain capillary endothelial cells, or an established immortalized brain capillary endothelial cell line, etc. […]
Further, Compound A (1 mg/kg, i.v.) was intravenously administered to rat, and according to integration plot method, a rate (PS) was measured for Compound A to enter the brain by passing through the blood brain barrier (BBB), and occupancy of PDE10 binding in the brain was analyzed.

COc1ccc(-c2cc(N3CCCC3)nc(/C=C/c3nc(-n4ccnc4)c4ccccc4n3)n2)cc1OC [Compound A, 2-{(E)-2-[4-(1-imidazolyl)-quinazolin-2-yl]}ethenyl-4-(3,4-dimethoxy)phenyl-6-(pyrrolidin-1-yl)pyrimidine]
pIC50 [1]: < 6.00 | occupancy of PDE10 binding in the brain [2]: excellent PDE10 binding behaviors inside the brain | brain uptake and penetration (rate PS through the BBB) ([2]; integration plot method): good brain uptake and penetration characteristics
